Reference: patent publication US10864201B2, “Heteroaromatic compounds as Vanin inhibitors” (Boehringer Ingelheim International GmbH, priority 2018, dated 2020)

Experiments:
Pantetheinase (vanin) = assay: Human Whole Blood assay; type: cell-based; conditions: formation of pantothenic acid after pantethine supplementation, RapidFire MS, read-out: HWB IC50
Method: Human Whole Blood assay: Pantetheinase (vanin) converts panteheine into pantothenic acid and cysteamine. Accordingly, in the described protocol vanin activity is quantified by formation of pantothenic acid after pantetheine supplementation via pantethine. The assay is applicable to identify vanin inhibitors. Compound stocks were dissolved in DMSO at 10 mM. Further dilutions were performed in RPMI 1640 medium (Gibco, #A-10491-01) and final concentrations in the assay were 0.032 nM-500 nM.
Human blood was drawn into a blood bag (1% heparin, 50 I.E./mL). Blood was aliquoted into cavities of 96-deep-well plates at 290 μL and mixed with 10 μL compound solution or vehicle (30 sec at 1400 rpm on a shaker). Equilibration followed at room temperature, 250 rpm and for 30 min. The assay was started by adding 10 μL of substrate solution (20 μM pantethine in 1 mM DTT, 0.0025% Brij-35, 50 mM HEPES, pH7.5) to each well, except for some blank wells which received […] substrate buffer (1 mM DTT, 0.0025% Brij-35, 50 mM HEPES, pH7.5) only. Samples were thoroughly shaken (30 sec, 1400 rpm) and reaction was allowed to take place at room temperature, 250 rpm and for 5 min. The reaction was stopped by addition of a vanin tool inhibitor in excess (BI-1 total conc. 10 μM). Centrifugation of the plate followed at 4° C., 665 G for 10 min. Then the blood plasma samples (100 μL) were transferred into another 96-deep-well plate and proteins were precipitated (5 min on ice) by adding 100 μL of ice cold precipitation solution (1 μM labelled pantothenic acid (di-β-alanine-13C6,15N2 calcium salt, Sigma, #705837) in acetonitrile). Afterwards the plate was centrifuged (4° C., 3220 G, 10 min) and supernatants (50 μL) were collected into another 96-deep-well plate and mixed (10 sec, 1400 rpm) with 150 μL ice cold formic acid (0.1%, Carl Roth GmbH+Co.KG, #CP03.1). The formation of pantothenic acid is detected by RapidFire Mass Spectrometry. A TripleQuad 6500+ (ABSciex, Germany) was equipped with an LC-1290 system, a RapidFire autosampler (Agilent, Germany) and a C18 cartridge Type C 12 μL (Agilent Cat #G9526-80000). Mobile phase A was consisting of 0.09% formic acid and 0.01% trifluoroacetic acid in water and mobile phase B of 0.09% formic acid and 0.01% trifluoroacetic acid in acetonitrile/methanol/water=47.5/47.5/5.

[1] = target: FLAG-tagged Vanin-1 (AA 22-493, T26I) (Homo sapiens (Human), UniProt O95497, T26I); assay: Vanin-1 enzymatic assay; type: biochemical; conditions: formation of pantothenic acid from D-pantethine (3 μM), RapidFire MS; geometric mean in case of multiple measurements; read-out: VNN 1 IC50
Chain of FLAG-tagged Vanin-1 (AA 22-493, T26I) (O95497 22-493 T26I): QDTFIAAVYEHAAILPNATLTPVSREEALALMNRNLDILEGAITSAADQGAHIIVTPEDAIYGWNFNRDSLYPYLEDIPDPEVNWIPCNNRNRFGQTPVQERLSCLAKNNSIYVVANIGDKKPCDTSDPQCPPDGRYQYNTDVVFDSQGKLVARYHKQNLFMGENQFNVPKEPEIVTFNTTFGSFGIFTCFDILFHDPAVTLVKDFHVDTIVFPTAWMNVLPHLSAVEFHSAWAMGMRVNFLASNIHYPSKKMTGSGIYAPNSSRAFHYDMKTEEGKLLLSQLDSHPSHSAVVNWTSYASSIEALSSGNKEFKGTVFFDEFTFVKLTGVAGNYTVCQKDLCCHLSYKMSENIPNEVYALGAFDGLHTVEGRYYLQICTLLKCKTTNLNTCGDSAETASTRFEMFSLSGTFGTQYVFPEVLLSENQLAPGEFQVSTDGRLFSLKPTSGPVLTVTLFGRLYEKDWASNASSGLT
Method: The test compounds are dissolved in 100% DMSO at a concentration of 10 mM and in a first step diluted in DMSO to a concentration of 5 mM, followed by serial dilution steps in 100% DMSO. Dilution factor and number of dilution steps may vary according to needs. Typically 8 different concentrations by 1:5 dilutions are prepared, a further intermediate dilutions of the substances is carried out with assay buffer resulting in 1% final DMSO concentration in the assay.
0.1 nM of FLAG-tagged Vanin-1 (AA 22-493, T26I, produced internally) and test compounds are incubated at room temperature for 20 minutes in assay buffer (1 mM DTT, 0.0025% Brij-35, 50 mM HEPES, pH7.5). D-Pantethine (Sigma, Cat #P2125-5G) in assay buffer is added (final concentration 3 μM) and incubated for additional 30 minutes at room temperature. Total assay volume typically is 40 μl but might be adjusted according to needs. Reaction is stopped by adding equal volume of stop solution as the reaction mixture to reach 100 nM HD-pantothenic acid (as an internal standard) and 1% TFA. Assay plates are centrifuged for 2 minutes and the formation of pantothenic acid is detected by RapidFire Mass Spectrometry (mobile phase A: 0.1% formic acid and 0.01% trifluoroacetic acid in water; mobile phase B: 47.5% acetonitrile, 47.5% methanol, 0.1% formic acid and 0.01% trifluoroacetic acid in water) using a C18, 12 μL cartridge (Agilent Cat #G9205A).
The values given in Table I result from measurements of one or more samples. In case of multiple measurements the geometric mean values are given.

IC50 (Pantetheinase (vanin)) [nM] | IC50 [1] [nM] | SMILES
17.2 | 0.2 | CN(c1ncccn1)[C@H]1CCN(C(=O)c2cnc3c(c2)C[C@](C)(c2ccc(F)cc2)N3)C1 [Example 5.5]
2.5 | 0.9 | CN(C(=O)C1CCC1)[C@H]1CCN(C(=O)c2cnc3c(c2)CC(C)(C)N3)C1 [Example 2.1, N-[(3S)-1-{2,2-Dimethyl-1H,2H,3H-pyrrolo[2,3-b]pyridine-5-carbonyl}pyrrolidin-3-yl]-N-methylcyclobutanecarboxamide]
 | 20.3 | CC(=O)N(C)[C@H]1CCN(C(=O)c2cnc3c(c2)CCC(c2ccccc2)N3)C1 (stereo partly drawn) [Example 12.1, N-Methyl-N-[(3S)-1-(7-phenyl-5,6,7,8-tetrahydro-1,8-naphthyridine-3-carbonyl)pyrrolidin-3-yl]acetamide]
2.6 | 0.1 | C[C@]1(c2ccc(Cl)cc2)Cc2cc(C(=O)N3CC[C@H](N4CCOC4=O)C3)cnc2N1 [Example 8.2]
 | 0.3 | CN(C(=O)C1CC1)[C@H]1CCN(C(=O)c2cnc3c(c2)CC[C@](C)(c2cncnc2)N3)C1 [Example 13.3]
8.2 | 0.3 | CC(=O)N(C)[C@H]1CCN(C(=O)c2cnc3c(c2)CCC(C)(c2ccccc2)N3)C1 (stereo partly shown) [Example 12.2]
1.4 | 0.1 | C[C@]1(c2cccc(F)c2)Cc2cc(C(=O)N3CC[C@H](N4CCOC4=O)C3)cnc2N1 [Example 4.1, 3-[(3S)-1-[(2R)-2-(3-Fluorophenyl)-2-methyl-1H,2H,3H-pyrrolo[2,3-b]pyridine-5-carbonyl]pyrrolidin-3-yl]-1,3-oxazolidin-2-one]
3.5 | 0.7 | CN(C(=O)C1CC1)[C@H]1CCN(C(=O)c2cnc3c(c2)CCC(C)(C)N3)C1 [Example 11.9]
 | 1.7 | CC(=O)N(C)[C@H]1CCN(C(=O)c2cnc3c(c2)C[C@@](C)(c2cccc(F)c2)N3)C1 [Example 4.2]
 | 2.7 | CN(C(=O)C1CC1)[C@H]1CCN(C(=O)c2cnc3c(c2)CCCC(C)(C)N3)C1 [Example 12.6]
6.9 | 0.5 | CN(C(=O)C1CC(F)(F)C1)[C@H]1CCN(C(=O)c2cnc3c(c2)CCC(C)(C)N3)C1 [Example 11.11]
 | 23.5 | CN(C(=O)C1CCC1)[C@H]1CCN(C(=O)c2cnc3c(c2)CC[C@@](C)(c2cncnc2)N3)C1 [Example 13.2, N-methyl-N-[(3S)-1-[(7S)-7-Methyl-7-(pyrimidin-5-yl)-5,6,7,8-tetrahydro-1,8-naphthyridine-3-carbonyl]pyrrolidin-3-yl]cyclobutanecarboxamide]
 | 1.7 | CC1(C)CCc2cc(C(=O)N3CCC4(CCOCC4)C3)cnc2N1 [Example 11.1, 2-(7,7-Dimethyl-5,6,7,8-tetrahydro-1,8-naphthyridine-3-carbonyl)-8-oxa-2-azaspiro[4.5]decane]
2.1 | 0.1 | C[C@]1(c2cccc(F)c2)Cc2cc(C(=O)N3CC[C@H](N4CCCC4=O)C3)cnc2N1 [Example 4.4]
4.5 | 0.3 | CC1(C)CCc2cc(C(=O)N3CC4(CCOCC4)C3)cnc2N1 [Example 11.2]
 | 1.6 | CC1(C)Cc2cc(C(=O)N3CC[C@H](N4CCOC4=O)C3)cnc2N1 [Example 1.3]

IC50 (Pantetheinase (vanin)) [nM] | IC50 [1] [nM] | SMILES
424 | 18.9 | CC(=O)N(C)[C@H]1CCN(C(=O)c2cnc3c(c2)C[C@@](C)(c2cccc(Cl)c2)N3)C1 [Example 7.3]
 | 4.3 | CC1(C)CCc2cc(C(=O)N3CC[C@H](N4CCOC4=O)C3)cnc2N1 [Example 11.5]
 | 2.1 | CN(C(=O)C1CC1)[C@H]1CCN(C(=O)c2cnc3c(c2)CC(C)(C)N3)C1 [Example 2.5]
 | 1.4 | CC1(C)CCCc2cc(C(=O)N3CC[C@H](N4CCOC4=O)C3)cnc2N1 [Example 12.7]
 | 25.9 | CC(=O)N(C)[C@H]1CCN(C(=O)c2cnc3c(c2)C[C@@](C)(c2ccccc2)N3)C1 [Example 9.4]
 | 0.4 | CC(=O)N(C)[C@H]1CCN(C(=O)c2cnc3c(c2)CCCCN3)C1 [Example 12.3]
 | 4.9 | CC1(C)Cc2cc(C(=O)N3CCC4(CCOCC4)C3)cnc2N1 [Example 1.4]
 | 1.5 | CC1(C)CCCc2cc(C(=O)N3CC[C@H](N4CCCC4=O)C3)cnc2N1 [Example 12.5]
 | 4.6 | CN(C(=O)C1(C)CCC1)[C@H]1CCN(C(=O)c2cnc3c(c2)CC(C)(C)N3)C1 [Example 2.3]
 | 2.5 | CC(=O)N(C)[C@H]1CCN(C(=O)c2cnc3c(c2)CCCC(C)(C)N3)C1 [Example 12.4]
 | 2.5 | CC(=O)N(C)[C@H]1CCN(C(=O)c2cnc3c(c2)CC(C)(C)N3)C1 [Example 1.1, N-[(3S)-1-{2,2-Dimethyl-1H,2H,3H-pyrrolo[2,3-b]pyridine-5-carbonyl}pyrrolidin-3-yl]-N-methylacetamide]
 | 11.5 | CN(C(=O)C1CC1)[C@H]1CCN(C(=O)c2cnc3c(c2)CC[C@@](C)(c2cncnc2)N3)C1 [Example 13.4]
 | 0.1 | C[C@]1(c2cccc(Cl)c2)Cc2cc(C(=O)N3CC[C@H](N4CCCC4=O)C3)cnc2N1 [Example 7.1, (3′S)-1′-[2-(3-Chlorophenyl)-2-methyl-1H,2H,3H-pyrrolo[2,3-b]pyridine-5-carbonyl]-[1,3′-bipyrrolidine]-2-one]
 | 0.2 | CN(C(=O)C1CCC1)[C@H]1CCN(C(=O)c2cnc3c(c2)CC[C@](C)(c2cncnc2)N3)C1 [Example 13.1, N-methyl-N-[(3S)-1-[(7R)-7-Methyl-7-(pyrimidin-5-yl)-5,6,7,8-tetrahydro-1,8-naphthyridine-3-carbonyl]pyrrolidin-3-yl]cyclobutanecarboxamide]
 | 4.9 | CN(C(=O)C1(C#N)CC1)[C@H]1CCN(C(=O)c2cnc3c(c2)CCC(C)(C)N3)C1 [Example 11.7]
 | 10.4 | CC1(C)Cc2cc(C(=O)N3CC4(CCOCC4)C3)cnc2N1 [Example 1.5]

SMILES | IC50 (Pantetheinase (vanin)) [nM] | IC50 [1] [nM]
CC(=O)N(C)[C@H]1CCN(C(=O)c2cnc3c(c2)C[C@](C)(c2ccc(C#N)cc2)N3)C1 [Example 10, N-[(3S)-1-[(2R)-2-(4-Cyanophenyl)-2-methyl-1H,2H,3H-pyrrolo[2,3-b]pyridine-5-carbonyl]pyrrolidin-3-yl]-N-methylacetamide] |  | 0.2
CC(=O)N(C)[C@H]1CCN(C(=O)c2cnc3c(c2)CC(C)(c2ccc(Cl)cc2)N3)C1 (mixture of isomers) [Example 8.1, N-[(3S)-1-[2-(4-Chlorophenyl)-2-methyl-1H,2H,3H-pyrrolo[2,3-b]pyridine-5-carbonyl]pyrrolidin-3-yl]-N-methylacetamide] | 4.3 | 0.2
CC(=O)N(C)[C@H]1CCN(C(=O)c2cnc3c(c2)C[C@](C)(c2ccc(F)cc2)N3)C1 [Example 6, N-[(3S)-1-[(2R)-2-(4-Fluorophenyl)-2-methyl-1H,2H,3H-pyrrolo[2,3-b]lpyridine-5-carbonyl]-pyrrolidin-3-yl]-N-methylacetamide] | 1.9 | 0.2
CC(=O)N(C)[C@H]1CCN(C(=O)c2cnc3c(c2)C[C@@](C)(c2ccc(Cl)cc2)N3)C1 [Example 9.2, N-[(3S)-1-[(2S)-2-(4-Chlorophenyl)-2-methyl-1H,2H,3H-pyrrolo[2,3-b]pyridine-5-carbonyl]pyrrolidin-3-yl]-N-methylacetamide] |  | 1.4
CC(=O)N(C)[C@H]1CCN(C(=O)c2cnc3c(c2)C[C@@](C)(c2ccc(F)cc2)N3)C1 [Example 5.4] |  | 87.1
